According to PMC8220737, “Molecular docking, chemo-informatic properties, alpha-amylase, and lipase inhibition studies of benzodioxol derivatives” (BMC Chemistry, 2021):
In brackets after ≈: the same amount, converted by molar mass. Several values for one entry are separate records, joined by “and”; a condition that tells them apart may be missing. Equal values may be shown once.

What was measured:
[1] = target: T1, porcine pancreatic amylase enzyme (Sus scrofa, UniProt P00690); experiment: α-Amylase inhibitory activity (DNSA method); type: biochemical; conditions: for IC50 (µg/ml) α-amylase / IC50: five concentrations 1, 10, 50, 100, 500 µg/ml, acarbose positive control; for potency relative to acarbose, α-amylase: folds more potent than acarbose
T1 construct: purchased Frutarom (UK)
T1 sequence (P00690 16-511): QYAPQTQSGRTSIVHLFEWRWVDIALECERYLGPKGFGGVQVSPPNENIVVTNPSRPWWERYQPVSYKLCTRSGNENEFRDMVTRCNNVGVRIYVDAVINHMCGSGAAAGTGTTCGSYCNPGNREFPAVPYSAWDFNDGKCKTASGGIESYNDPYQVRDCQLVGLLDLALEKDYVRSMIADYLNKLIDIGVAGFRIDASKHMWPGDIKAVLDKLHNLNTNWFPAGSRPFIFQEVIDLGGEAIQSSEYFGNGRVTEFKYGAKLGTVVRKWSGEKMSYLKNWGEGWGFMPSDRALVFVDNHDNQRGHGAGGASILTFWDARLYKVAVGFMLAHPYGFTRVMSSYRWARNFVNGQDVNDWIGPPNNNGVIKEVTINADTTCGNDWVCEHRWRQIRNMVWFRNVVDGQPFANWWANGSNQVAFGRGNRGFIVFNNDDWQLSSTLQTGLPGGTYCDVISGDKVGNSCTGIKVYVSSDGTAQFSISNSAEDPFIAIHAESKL
Source text: The in vitro antidiabetic activity of the synthesized compounds was investigated by assessing their α-amylase inhibitory effects. Acarbose was used as a positive control.
The following materials were purchased from Frutarom (UK): β-carotene, porcine pancreatic amylase enzyme solution, starch, dinitrosalicylic acid (DNSA), methanol, trolox, gallic acid, Na2CO3, and acarbose.
The α-amylase inhibitory assessment was based on the Wickramaratne et al. protocol with some slight alterations in some steps. The experimental part was carried out by following the 3,5-dinitrosalicylic acid (DNSA) procedure. Solutions of 20 mm sodium phosphate monobasic and sodium phosphate dibasic buffer involving 6.7 mm sodium chloride (NaH2PO4 and Na2HPO4, both including 6.7 mm NaCl, pH 6.9) were constructed by partially filling the beaker with NaH2PO4 and NaCl solution; the mixture was subjected to a magnetic stirrer. In contrast, the pH was adjusted by inserting a calibrated pH electrode in the solution. Then, the Na2HPO4 and NaCl solution was gradually added until the pH reached 6.9. A weight of 5.36 g of 20 mm Na2HPO4. 7H2O and 0.39 g of 6.7 mm NaCl were dispersed in distilled water to make 1 L and a weight of 2.76 g of NaH2PO4. […] Working solutions with concentrations of 1, 10, 50, 100 and 500 µg/ml were obtained by mixing 0.01, 0.1, 0.5, 1, and 5 ml of our synthesized molecules, respectively, and then diluting them with a buffer of Na2HPO4/NaH2PO4 (0.02 M) and NaCl (0.006 M) at pH 6.9 and then brined up to 10 ml using VF (10 ml). The acarbose was considered a reference and was established following the same previous steps used for the synthesized molecules.
A starch solution with a concentration of 1% (w/v) was prepared by suspending 1000 mg of starch in 100 ml of distilled water using V.F (100 ml), and then it was kept in a water bath at 37 °C until use, with occasional mixing to prevent starch precipitation. DNSA was used as a reactive reagent to react with reducing sugars to produce 3-amino-5- nitro salicylic acid that is highly absorbent of light at about 540 nm. It was prepared by dissolving 12 g of sodium potassium tartrate tetrahydrate in 8.0 ml of 2 M NaOH (8 g in 100 ml distill. water) then further dissolved in 20 ml of 96 mm of 3.5-dinitrosalicylic acid solution.
Then, 200 μl of the amylase solution (2 units/ml) was gently shaken with 200 μl of each of the VOs established working solutions, and then this was incubated at 37 °C for 10 min. Then 200 μl of the starch solution was added to each test tube, and there was further incubation for 3 min at 37 °C. The addition of 200 μl DNSA terminated the reaction and then boiling for 10 min at 85 to 90 °C. The mixture was then cooled to room temperature and diluted with 5 ml of distilled water, and the absorbance was recorded at 540 nm using a UV–Visible spectrophotometer. Replacement of the synthesized compounds with 200 μl of buffer was established to obtain the blank sample. In this protocol, acarbose was the positive control sample.

[2] = target: T2, porcine pancreatic lipase (Sus scrofa, UniProt P00591); experiment: Anti-lipase activity (PNPB hydrolysis); type: biochemical; conditions: for IC50 (µg/ml) Lipase: five dilutions 40, 100, 200, 300, 400 µg/ml, orlistat positive control; for IC50: read-out: IC50 (µg/ml) Lipase (converted)
T2 sequence (P00591 1-450): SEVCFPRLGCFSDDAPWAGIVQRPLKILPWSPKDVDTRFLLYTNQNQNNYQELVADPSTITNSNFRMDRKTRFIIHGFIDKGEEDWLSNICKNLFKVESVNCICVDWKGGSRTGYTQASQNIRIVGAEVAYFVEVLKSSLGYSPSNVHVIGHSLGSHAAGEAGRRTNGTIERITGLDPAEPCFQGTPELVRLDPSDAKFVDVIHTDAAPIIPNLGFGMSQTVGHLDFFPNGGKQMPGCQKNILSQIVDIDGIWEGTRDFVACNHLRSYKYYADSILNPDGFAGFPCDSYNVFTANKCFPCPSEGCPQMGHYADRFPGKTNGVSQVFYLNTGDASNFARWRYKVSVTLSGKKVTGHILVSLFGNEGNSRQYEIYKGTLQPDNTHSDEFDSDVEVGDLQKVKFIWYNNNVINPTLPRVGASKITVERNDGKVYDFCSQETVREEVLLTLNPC
Method: A solution of 1 mg/ml of the synthesized compounds was mixed with 10% dimethyl sulfoxide (DMSO) and then diluted with 10% DMSO to produce five dilutions (40, 100, 200, 300, and 400 µg/ml).
A freshly prepared stock solution of pancreatic lipase enzyme was established by suspending this enzyme in 10% DMSO to form 1 mg/ml. Firstly, 25 mg of lipase was suspended in a small amount of 10% DMSO, bringing the volume up to 25 ml in V.F (25 ml), this was then put in a water bath sonicator at 37 °C for 15 min. […] The pancreatic lipase inhibition assay was conducted by adopting the procedure in the references with slight modifications. From each working solution of the synthesized compounds prepared above, 200 µl of the synthesized compounds were taken and put in a separate test tube, then 100 µl of porcine pancreatic lipase (1 mg/ml) was added to it. The resulting mixture was then adjusted to 1000 µl after addition to the 700 µl of Tris–HCl solution, and then it was incubated in a water bath at 37 °C for 15 min. After the incubation, 100 µl of PNPB (p-nitrophenyl butyrate) solution was added to each test tube. This mixture was then incubated again in a water bath at 37 °C for 30 min. A solution characterized as a negative control was constructed without the synthesized compounds, using 100 µl of porcine pancreatic lipase (1 mg/ml) solution mixed with the Tris–HCl solution up to 1 ml after the addition of 900 µl. […] The % inhibition of the synthesized compounds was calculated by using the following equation: Inhibitory lipase%=Ab-As/Ab∗100

| IC50 (µg/ml) α-amylase [1] | IC50 (µg/ml) Lipase [2] [µg/mL] | IC50 [1] [µM] | IC50 [2] [µM] | α-amylase inhibitory activity in words [1] | Structure (SMILES) | potency relative to acarbose, α-amylase [1] |
| --- | --- | --- | --- | --- | --- | --- |
| 7.95 ± 1.15 µg/mL (≈ 19.4 µM) | 187.7 ± 1.23 (≈ 458 µM) |  |  |  | O=C(O)Cc1cc2c(cc1C(=O)c1ccccc1I)OCO2 [4d] |  |
| 8.88 ± 2.10 µg/mL (≈ 27.9 µM) | > 400 |  |  |  | O=C(O)Cc1cc2c(cc1C(=O)c1ccccc1Cl)OCO2 [4a] |  |
| 3.85 ± 0.98 µg/mL (≈ 9.39 µM) | 201.2 ± 2.37 (≈ 491 µM) |  |  |  | O=C(O)Cc1cc2c(cc1C(=O)c1cccc(I)c1)OCO2 [4e] |  |
|  |  | 3.06 | 800 |  | O=C(O)Cc1cc2c(cc1C(=O)c1ccccc1Br)OCO2 [4f] | five to six folds more potent than acarbose |
| 8.54 µg/mL and 8.547 ± 1.55 µg/mL | 44.47 ± 2.30 (≈ 148 µM) |  |  |  | COc1ccc(NC(=O)c2ccc3c(c2)OCO3)cc1OC [6a] |  |
|  |  | 14.2 | 335 |  | COc1cc(NC(=O)c2ccc3c(c2)OCO3)cc(OC)c1 [6b] |  |
| 4.12 ± 1.63 µg/mL (≈ 14.5 µM) | 213.82 ± 2.1 (≈ 752 µM) |  |  |  | O=C(O)Cc1cc2c(cc1C(=O)c1ccccc1)OCO2 [4c] |  |
| 1.25 ± 1.01 µg/mL (≈ 3.92 µM) | > 400 |  |  |  | O=C(O)Cc1cc2c(cc1C(=O)c1cccc(Cl)c1)OCO2 [4b] | five to six folds more potent than acarbose |

Further lines, the compound ahead of its results:

| Structure (SMILES) | IC50 (µg/ml) α-amylase [1] | IC50 (µg/ml) Lipase [2] [µg/mL] | IC50 [1] [µM] | IC50 [2] [µM] | α-amylase inhibitory activity in words [1] | potency relative to acarbose, α-amylase [1] |
| --- | --- | --- | --- | --- | --- | --- |
| COC(=O)Cc1cc2c(cc1C(=O)c1ccccc1I)OCO2 [3c] | 39.85 ± 1.3 µg/mL (≈ 93.9 µM) | > 400 |  |  |  |  |
| COC(=O)Cc1cc2c(cc1C(=O)c1ccccc1Br)OCO2 [3e] | 2.57 ± 0.90 µg/mL (≈ 6.81 µM) | 78.37 ± 1.72 (≈ 208 µM) |  |  |  |  |
| COC(=O)Cc1cc2c(cc1C(=O)c1ccccc1Cl)OCO2 [3a] |  |  | 7.57 | 437 |  |  |
| COC(=O)Cc1cc2c(cc1C(=O)c1cccc(I)c1)OCO2 [3d] | 16.36 ± 0.75 µg/mL (≈ 38.6 µM) | 118.86 ± 2.1 (≈ 280 µM) |  |  |  |  |
| O=C(O)Cc1cc2c(cc1C(=O)c1cccc(Br)c1)OCO2 [4 g] | 4.90 ± 2.21 µg/mL (≈ 13.5 µM) | 225.8 ± 1.43 (≈ 622 µM) |  |  |  |  |
| COC(=O)Cc1cc2c(cc1C(=O)c1cccc(Br)c1)OCO2 [3f] | 9.29 ± 1.4 µg/mL (≈ 24.6 µM) | > 400 |  |  |  |  |
| COC(=O)Cc1cc2c(cc1C(=O)c1ccccc1)OCO2 [3b] | 61.45 ± 1.5 µg/mL (≈ 206 µM) | > 400 |  |  | lowest activity |  |
